Reference: ChEMBL document CHEMBL5634109, “Synthesis and mechanism of action of new purine derivatives against triple negative breast cancer” (Eur J Med Chem, 2023)
Activity calls are given as the source filed them. The rule behind the calls is not given here.

Assays:
[1] = biological target: T1, Cyclin-dependent kinase 7 (Homo sapiens, UniProt P50613); test: Inhibition of CDK7 (unknown origin) at 1 uM relative to control
[2] = biological target: T1, Cyclin-dependent kinase 7; test: Inhibition of CDK7 (unknown origin) at 10 uM relative to control
[3] = biological target: T2, Dual specificity protein kinase CLK2 (Homo sapiens, UniProt P49760); test: Inhibition of CLK2 (unknown origin) at 1 uM relative to control
Target sequence in this assay (P49760 whole entry, looked up): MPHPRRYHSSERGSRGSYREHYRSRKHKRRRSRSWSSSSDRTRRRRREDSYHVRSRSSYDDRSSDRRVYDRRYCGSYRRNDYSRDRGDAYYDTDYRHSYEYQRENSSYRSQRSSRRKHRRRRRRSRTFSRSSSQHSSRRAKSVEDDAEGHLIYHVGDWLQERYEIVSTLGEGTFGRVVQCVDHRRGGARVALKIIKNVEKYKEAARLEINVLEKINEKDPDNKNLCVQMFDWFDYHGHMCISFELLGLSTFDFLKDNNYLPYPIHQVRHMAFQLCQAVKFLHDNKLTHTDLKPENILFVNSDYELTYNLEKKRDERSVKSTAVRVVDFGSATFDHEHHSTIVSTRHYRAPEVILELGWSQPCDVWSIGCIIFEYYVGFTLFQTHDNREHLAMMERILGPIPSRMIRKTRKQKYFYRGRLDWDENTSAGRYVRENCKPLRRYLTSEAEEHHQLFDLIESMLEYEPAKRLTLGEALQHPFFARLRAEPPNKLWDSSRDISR

[4] = biological target: T2, Dual specificity protein kinase CLK2; test: Inhibition of CLK2 (unknown origin) at 10 uM relative to control
Target sequence in this assay (P49760 whole entry, looked up): as above

[5] = biological target: T3, Dual specificity protein kinase CLK4 (Homo sapiens, UniProt Q9HAZ1); test: Inhibition of CLK4 (unknown origin) at 1 uM relative to control
Target sequence in this assay (Q9HAZ1 whole entry, looked up): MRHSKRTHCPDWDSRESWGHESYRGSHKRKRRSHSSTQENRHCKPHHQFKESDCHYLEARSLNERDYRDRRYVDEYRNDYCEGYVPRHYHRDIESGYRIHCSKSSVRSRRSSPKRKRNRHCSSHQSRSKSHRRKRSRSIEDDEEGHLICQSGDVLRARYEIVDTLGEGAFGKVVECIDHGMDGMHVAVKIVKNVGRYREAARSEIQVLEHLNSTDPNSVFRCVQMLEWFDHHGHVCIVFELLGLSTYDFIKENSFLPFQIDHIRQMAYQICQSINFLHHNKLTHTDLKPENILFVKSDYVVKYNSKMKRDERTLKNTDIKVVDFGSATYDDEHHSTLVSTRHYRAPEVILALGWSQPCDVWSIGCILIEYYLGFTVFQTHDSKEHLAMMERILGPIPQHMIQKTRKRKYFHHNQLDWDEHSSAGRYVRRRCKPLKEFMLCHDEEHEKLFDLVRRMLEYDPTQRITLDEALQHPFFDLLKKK

[6] = biological target: T3, Dual specificity protein kinase CLK4; test: Inhibition of CLK4 (unknown origin) at 10 uM relative to control
Target sequence in this assay (Q9HAZ1 whole entry, looked up): as above

[7] = biological target: T4, Cyclin-dependent kinase 2/cyclin E1 (Homo sapiens) (UniProt P24864+P24941); test: Inhibition of CDK2/Cyclin E (unknown origin) at 1 uM relative to control; assay type: protein-complex assay
[8] = biological target: T4, Cyclin-dependent kinase 2/cyclin E1 (Homo sapiens); test: Inhibition of CDK2/Cyclin E (unknown origin) at 10 uM relative to control; assay type: protein-complex assay
[9] = biological target: T5, Cyclin-dependent kinase 5/CDK5 activator 1 (Homo sapiens) (UniProt Q00535+Q15078); test: Inhibition of CDK5/P25 (unknown origin) at 1 uM relative to control; assay type: protein-complex assay
[10] = biological target: T5, Cyclin-dependent kinase 5/CDK5 activator 1 (Homo sapiens); test: Inhibition of CDK5/P25 (unknown origin) at 10 uM relative to control; assay type: protein-complex assay
[11] = biological target: Cyclin-dependent kinase 9 (Homo sapiens) (UniProt P50750); test: Inhibition of CDK9 (unknown origin) at 1 uM relative to control
[12] = biological target: Cyclin-dependent kinase 9 (Homo sapiens) (UniProt P50750); test: Inhibition of CDK9 (unknown origin) at 10 uM relative to control
[13] = biological target: T1, Cyclin-dependent kinase 7; test: Inhibition of CDK7 (unknown origin)
[14] = biological target: T2, Dual specificity protein kinase CLK2; test: Inhibition of CLK2 (unknown origin)
Target sequence in this assay (P49760 whole entry): as the sequence (P49760 whole entry, looked up) above

[15] = biological target: T3, Dual specificity protein kinase CLK4; test: Inhibition of CLK4 (unknown origin)
Target sequence in this assay (Q9HAZ1 whole entry): as the sequence (Q9HAZ1 whole entry, looked up) above

[16] = biological target: Dual specificity protein kinase CLK1 (Homo sapiens, UniProt P49759); test: Inhibition of CLK1 (unknown origin)
[17] = biological target: Casein kinase I isoform epsilon (Homo sapiens, UniProt P49674); test: Inhibition of CK1epsilon (unknown origin)
[18] = biological target: Dual specificity tyrosine-phosphorylation-regulated kinase 1A (Homo sapiens, UniProt Q13627); test: Inhibition of DYRK1A (unknown origin)
HepG2 = test: Antiproliferative activity against human HepG2 cells assessed as reduction in cell viability measured for 48 hrs by MTT assay; assay type: functional, cell-based; conditions: HepG2, 48 h
HCT-116 = test: Antiproliferative activity against human HCT-116 cells assessed as reduction in cell viability measured for 48 hrs by MTT assay; assay type: functional, cell-based; conditions: HCT-116, 48 h
HT-29 = test: Antiproliferative activity against human HT-29 cells assessed as reduction in cell viability measured for 48 hrs by MTT assay; assay type: functional, cell-based; conditions: HT-29, 48 h
K562 = test: Antiproliferative activity against human K562 cells assessed as reduction in cell viability measured for 48 hrs by MTT assay; assay type: functional, cell-based; conditions: K562, 48 h
MCF7 = test: Antiproliferative activity against human MCF7 cells assessed as reduction in cell viability measured for 48 hrs by MTT assay; assay type: functional, cell-based; conditions: MCF7, 48 h
MGC-803 = test: Antiproliferative activity against human MGC-803 cells assessed as reduction in cell viability measured for 48 hrs by MTT assay; assay type: functional, cell-based; conditions: MGC-803, 48 h
A549 = test: Antiproliferative activity against human A549 cells assessed as reduction in cell viability measured for 48 hrs by MTT assay; assay type: functional, cell-based; conditions: A549, 48 h
NCI-H1299 = test: Antiproliferative activity against human NCI-H1299 cells assessed as reduction in cell viability measured for 48 hrs by MTT assay; assay type: functional, cell-based; conditions: NCI-H1299, 48 h
PC-3 = test: Antiproliferative activity against human PC-3 cells assessed as reduction in cell viability measured for 48 hrs by MTT assay; assay type: functional, cell-based; conditions: PC-3, 48 h
MDA-MB-231 [19] = test: Induction of ROS generation in human MDA-MB-231 cells assessed as increase in intracellular ROS level at 40 uM incubated for 48 hrs by DCFH-DA staining based fluorescence microscopic analysis (Rvb= 24.7%); assay type: functional
Cell membrane = test: Induction of mitochondrial membrane potential loss in human MDA-MB-231 cells assessed as increase in fluorescence intensity at 40 uM incubated for 48 hrs by TMRM dye based flow cytometry analysis (reference value: 97.5%)
MDA-MB-231 [20] = test: Inhibition of cell migration human MDA-MB-231 cells assessed as migration distance at 25 uM incubated for 24 hrs by wound healing assay (reference value: 642.72 micrometer); assay type: functional
MDA-MB-231 [21] = test: Inhibition of cell migration human MDA-MB-231 cells assessed as migration distance at 25 uM incubated for 48 hrs by wound healing assay (reference value: 642.72 micrometer); assay type: functional
MDA-MB-231 [22] = test: Inhibition of cell migration human MDA-MB-231 cells at 0.01 to 0.4 uM incubated for 20 hrs by DAPI staining based analysis; assay type: functional; conditions: dose 0.01-0.4 µM
HUVEC = test: Antiangiogenesis activity in HUVEC cells at 125 nM incubated for 12 hrs by microscopic analysis; assay type: functional, cell-based; conditions: Homo sapiens
MDA-MB-231 [23] = test: Antiproliferative activity against human MDA-MB-231 cells assessed as reduction in cell viability measured for 48 hrs by MTT assay; assay type: functional, cell-based; conditions: MDA-MB-231, 48 h
MDA-MB-468 = test: Antiproliferative activity against human MDA-MB-468 cells assessed as reduction in cell viability measured for 48 hrs by MTT assay; assay type: functional, cell-based; conditions: MDA-MB-468, 48 h
[24] = Antiproliferative activity against human HUVEC cells assessed as reduction in cell viability measured for 48 hrs by MTT assay; assay type: toxicity, cell-based
[25] = Antiproliferative activity against human HEK293 cells assessed as reduction in cell viability measured for 48 hrs by MTT assay; assay type: toxicity, cell-based

Dual specificity protein kinase CLK1, sequence (P49759 whole entry, canonical isoform): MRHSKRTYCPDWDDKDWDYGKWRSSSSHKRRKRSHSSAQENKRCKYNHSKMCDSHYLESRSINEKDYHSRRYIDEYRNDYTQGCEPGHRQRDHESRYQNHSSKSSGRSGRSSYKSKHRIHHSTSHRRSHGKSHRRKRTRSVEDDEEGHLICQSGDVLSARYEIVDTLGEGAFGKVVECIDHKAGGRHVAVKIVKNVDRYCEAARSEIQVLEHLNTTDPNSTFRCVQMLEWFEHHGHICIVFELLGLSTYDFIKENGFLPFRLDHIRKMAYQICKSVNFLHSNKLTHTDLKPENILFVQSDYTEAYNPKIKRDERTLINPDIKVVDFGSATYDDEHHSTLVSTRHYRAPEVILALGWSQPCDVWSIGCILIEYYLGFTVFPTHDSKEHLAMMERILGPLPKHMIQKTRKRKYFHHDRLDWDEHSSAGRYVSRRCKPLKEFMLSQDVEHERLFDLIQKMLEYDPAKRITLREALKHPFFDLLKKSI
Casein kinase I isoform epsilon, sequence (P49674 whole entry, canonical isoform): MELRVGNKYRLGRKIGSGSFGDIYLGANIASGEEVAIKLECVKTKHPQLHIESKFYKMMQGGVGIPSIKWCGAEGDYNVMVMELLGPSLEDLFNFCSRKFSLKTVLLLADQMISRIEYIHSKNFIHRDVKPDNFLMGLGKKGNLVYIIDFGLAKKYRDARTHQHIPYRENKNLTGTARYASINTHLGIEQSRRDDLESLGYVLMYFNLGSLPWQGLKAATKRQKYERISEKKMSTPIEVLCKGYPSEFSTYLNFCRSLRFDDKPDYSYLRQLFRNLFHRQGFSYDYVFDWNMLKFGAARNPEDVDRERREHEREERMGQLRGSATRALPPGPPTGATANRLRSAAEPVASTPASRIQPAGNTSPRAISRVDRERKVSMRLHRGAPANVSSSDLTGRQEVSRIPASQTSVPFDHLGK
T1 sequence (P50613 whole entry): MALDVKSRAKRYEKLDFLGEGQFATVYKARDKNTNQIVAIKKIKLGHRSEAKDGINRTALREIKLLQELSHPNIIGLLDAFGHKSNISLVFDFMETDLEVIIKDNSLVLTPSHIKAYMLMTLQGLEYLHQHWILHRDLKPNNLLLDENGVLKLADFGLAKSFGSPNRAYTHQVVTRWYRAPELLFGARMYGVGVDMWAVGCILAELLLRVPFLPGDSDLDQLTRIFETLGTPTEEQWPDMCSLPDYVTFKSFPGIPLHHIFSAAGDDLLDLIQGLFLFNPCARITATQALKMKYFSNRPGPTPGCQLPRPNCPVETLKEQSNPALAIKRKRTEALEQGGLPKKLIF
T5 sequence (Q00535 whole entry): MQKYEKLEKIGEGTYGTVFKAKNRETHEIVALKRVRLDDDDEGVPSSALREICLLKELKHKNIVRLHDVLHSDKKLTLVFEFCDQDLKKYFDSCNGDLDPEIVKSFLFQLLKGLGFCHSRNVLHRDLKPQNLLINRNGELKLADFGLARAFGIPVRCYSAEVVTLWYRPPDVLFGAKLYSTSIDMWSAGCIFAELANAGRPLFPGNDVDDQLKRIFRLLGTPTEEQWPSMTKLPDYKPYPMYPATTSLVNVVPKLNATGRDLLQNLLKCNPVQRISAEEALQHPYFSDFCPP
T5 sequence (Q15078 99-307 partner limits assumed): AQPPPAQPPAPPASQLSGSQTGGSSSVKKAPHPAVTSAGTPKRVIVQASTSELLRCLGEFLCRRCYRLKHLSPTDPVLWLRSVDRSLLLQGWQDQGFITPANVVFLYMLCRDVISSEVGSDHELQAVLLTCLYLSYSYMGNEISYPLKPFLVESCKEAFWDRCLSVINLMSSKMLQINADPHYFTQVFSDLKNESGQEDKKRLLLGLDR
Cyclin-dependent kinase 9 (Homo sapiens), sequence (P50750 whole entry): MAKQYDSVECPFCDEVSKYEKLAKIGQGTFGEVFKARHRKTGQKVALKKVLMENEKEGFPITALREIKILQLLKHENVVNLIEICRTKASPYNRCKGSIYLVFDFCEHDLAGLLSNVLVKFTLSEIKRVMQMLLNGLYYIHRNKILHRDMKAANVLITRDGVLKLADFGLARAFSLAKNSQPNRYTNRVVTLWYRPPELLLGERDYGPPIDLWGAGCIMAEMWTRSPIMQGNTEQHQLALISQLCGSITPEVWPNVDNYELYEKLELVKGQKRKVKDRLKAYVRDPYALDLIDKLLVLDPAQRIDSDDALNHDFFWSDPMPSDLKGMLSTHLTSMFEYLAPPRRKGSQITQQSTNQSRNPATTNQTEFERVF

| Compound | IC50 [13] | IC50 [14] | IC50 [15] | IC50 [16] | IC50 [17] | IC50 [18] | IC50 (HepG2) | IC50 (HCT-116) | IC50 (HT-29) | IC50 (K562) | IC50 (MCF7) | IC50 (MGC-803) | IC50 (A549) | IC50 (NCI-H1299) | IC50 (PC-3) | also measured |
| --- | --- | --- | --- | --- | --- | --- | --- | --- | --- | --- | --- | --- | --- | --- | --- | --- |
| CC(C)n1cnc2c(NCc3ccccc3)nc(N3CCC(C4CCN(CCO)CC4)CC3)nc21 | 0.143 µM | 0.068 µM | 0.158 µM | 0.412 µM | 0.771 µM | 0.877 µM | 1.82 µM | 2.23 µM | 3.17 µM | – | – | – | – | – | – | inhibition [1]: 88%; inhibition [2]: 96%; inhibition [3]: 99%; inhibition [4]: 99%; inhibition [5]: 92%; inhibition [6]: 97%; inhibition [7]: 2%; inhibition [8]: 49%; inhibition [9]: 4%; inhibition [10]: 42%; inhibition [11]: 8%; inhibition [12]: 40% |
| OCCN1CCC(C2CCN(c3nc(NCc4cc(F)cc(F)c4)c4ncn(C5CCCC5)c4n3)CC2)CC1 | – | – | – | – | – | – | 4.43 µM | 41.9 µM | 3.41 µM | 2.54 µM | 2.93 µM | 5.7 µM | 2.33 µM | 6.49 µM | 4.36 µM | – |
| CC(C)n1cnc2c(NCc3ccncc3)nc(N3CCC(C4CCN(CCO)CC4)CC3)nc21 | – | – | – | – | – | – | 58.8 µM | 24.4 µM | 35.9 µM | 31 µM | 10.1 µM | > 100 µM | 34.7 µM | 38.7 µM | – | – |
| CC(C)n1cnc2c(NCc3ccc(F)c(F)c3)nc(N3CCC(C4CCN(CCO)CC4)CC3)nc21 | 0.597 µM | 0.08 µM | 0.31 µM | 0.949 µM | 0.415 µM | 0.79 µM | 3.05 µM | 2.8 µM | 3.47 µM | 0.44 µM | 3.05 µM | 5.07 µM | 2.49 µM | 19.6 µM | 3.95 µM | – |
| OCCN1CCC(C2CCN(c3nc(NCc4ccc(Cl)c(F)c4)c4ncn(C5CCCC5)c4n3)CC2)CC1 | 2.04 µM | 0.058 µM | 0.126 µM | 0.78 µM | 0.193 µM | 0.445 µM | 1.75 µM | 2.95 µM | 4.21 µM | 2.63 µM | 2.83 µM | 19.9 µM | 3.54 µM | 4.77 µM | 7.2 µM | – |
| CC(C)n1cnc2c(NCc3cccnc3Cl)nc(N3CCC(C4CCN(CCO)CC4)CC3)nc21 | – | – | – | – | – | – | > 100 µM | 54.5 µM | > 100 µM | > 100 µM | > 100 µM | > 100 µM | > 100 µM | > 100 µM | – | – |
| CC[C@H](CO)Nc1nc(NCc2ccccc2)c2ncn(C(C)C)c2n1 [SELICICLIB] | – | – | – | – | – | – | > 100 µM | 17.3 µM | > 100 µM | > 100 µM | > 100 µM | > 100 µM | > 100 µM | 83 µM | > 100 µM | Activity (MDA-MB-231 [19]): 21.8%; Activity (Cell membrane): 87.5%; Activity (MDA-MB-231 [20]): 348.27 um; Activity (MDA-MB-231 [21]): 453.91 um; inhibition (MDA-MB-231 [22]): Active; Activity (HUVEC): Active |
| CC(C)n1cnc2c(NCc3ccccn3)nc(N3CCC(C4CCN(CCO)CC4)CC3)nc21 | 0.043 µM | 0.02 µM | 0.047 µM | 0.173 µM | 0.167 µM | 0.208 µM | 76.1 µM | 22.8 µM | 53.9 µM | 28.7 µM | 44.5 µM | > 100 µM | 38.4 µM | 53.4 µM | – | – |
| CC(C)n1cnc2c(NCc3cc(F)cnc3Cl)nc(N3CCC(C4CCN(CCO)CC4)CC3)nc21 | – | – | – | – | – | – | 6.91 µM | 0.35 µM | 2.39 µM | 0.29 µM | 6.03 µM | 6.78 µM | 0.45 µM | 2.75 µM | – | IC50 (MDA-MB-231 [23]): 0.4 µM; IC50 (MDA-MB-468): 4.07 µM; IC50 at 48 h [24]: 1.55 µM; IC50 at 48 h [25]: 0.46 µM |
| CC[C@@]1(O)C(=O)OCc2c1cc1n(c2=O)Cc2cc3ccccc3nc2-1 [CAMPTOTHECIN] | – | – | – | – | – | – | – | 0.21 µM | 0.19 µM | 0.08 µM | 6.39 µM | > 100 µM | 5.5 µM | > 100 µM | > 100 µM | IC50 (MDA-MB-231 [23]): > 100 µM; IC50 (MDA-MB-468): > 100 µM; IC50 at 48 h [24]: 0.04 µM; IC50 at 48 h [25]: 0.81 µM |
